{
  "source": "ChEMBL document CHEMBL5579878",
  "about": "“Allosteric Activation of Protein Phosphatase 5 with Small Molecules” (J Med Chem, 2024)",
  "key": {"[1]": {"molecular_target": "Dual specificity protein phosphatase 3 (Homo sapiens) (UniProt P51452)", "sequence (P51452 whole entry, looked up)": "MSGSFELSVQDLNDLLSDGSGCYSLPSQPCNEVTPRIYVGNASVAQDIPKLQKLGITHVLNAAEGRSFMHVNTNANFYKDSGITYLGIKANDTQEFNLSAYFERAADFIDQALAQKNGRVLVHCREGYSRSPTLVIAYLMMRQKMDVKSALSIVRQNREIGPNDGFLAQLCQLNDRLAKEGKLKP", "assay": "Inhibition of DUSP3 (unknown origin) using DiFMUP as substrate at 0.01 to 1000 uM", "conditions": "dose 0.01-1000 µM"}, "HCT-116 [2]": {"system": "HCT-116", "assay": "Downregulation of AT13387-induced HSP40 expression in PP5 Knockout human HCT-116 cells at 50 uM incubated for 24 hrs by Western blot analysis", "assay_type": "functional, cell-based"}, "HCT-116 [3]": {"system": "HCT-116", "assay": "Downregulation of AT13387-induced HSP27 expression in PP5 Knockout human HCT-116 cells at 50 uM incubated for 24 hrs by Western blot analysis", "assay_type": "functional, cell-based"}, "[4]": {"molecular_target": "T1, Serine/threonine-protein phosphatase 5 (Homo sapiens, UniProt P53041)", "T1 sequence (P53041 whole entry)": "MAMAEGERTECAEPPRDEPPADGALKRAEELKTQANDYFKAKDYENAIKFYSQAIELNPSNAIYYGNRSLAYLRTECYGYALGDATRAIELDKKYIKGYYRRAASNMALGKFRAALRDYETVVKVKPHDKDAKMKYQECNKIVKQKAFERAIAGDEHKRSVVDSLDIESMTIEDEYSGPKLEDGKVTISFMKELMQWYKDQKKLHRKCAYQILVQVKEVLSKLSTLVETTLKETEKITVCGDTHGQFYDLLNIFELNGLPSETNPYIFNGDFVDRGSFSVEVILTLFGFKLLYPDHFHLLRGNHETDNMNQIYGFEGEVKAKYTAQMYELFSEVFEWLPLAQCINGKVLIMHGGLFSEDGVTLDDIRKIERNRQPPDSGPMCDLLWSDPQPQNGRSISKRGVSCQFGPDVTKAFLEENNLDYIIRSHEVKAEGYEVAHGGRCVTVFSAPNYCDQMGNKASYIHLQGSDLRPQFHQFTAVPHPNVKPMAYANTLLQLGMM", "assay": "Binding affinity to full length His-tagged human PP5 extracted from Escherichia coli BL21 assessed as dissociation constant by ITC analysis"}, "[5]": {"molecular_target": "T1, Serine/threonine-protein phosphatase 5", "assay": "Binding affinity to His-tagged human PP5 phosphatase domain extracted from Escherichia coli BL21 assessed as dissociation constant by ITC analysis"}, "[6]": {"molecular_target": "Serine/threonine-protein phosphatase PP1-alpha catalytic subunit (Homo sapiens) (UniProt P62136)", "sequence (P62136 whole entry)": "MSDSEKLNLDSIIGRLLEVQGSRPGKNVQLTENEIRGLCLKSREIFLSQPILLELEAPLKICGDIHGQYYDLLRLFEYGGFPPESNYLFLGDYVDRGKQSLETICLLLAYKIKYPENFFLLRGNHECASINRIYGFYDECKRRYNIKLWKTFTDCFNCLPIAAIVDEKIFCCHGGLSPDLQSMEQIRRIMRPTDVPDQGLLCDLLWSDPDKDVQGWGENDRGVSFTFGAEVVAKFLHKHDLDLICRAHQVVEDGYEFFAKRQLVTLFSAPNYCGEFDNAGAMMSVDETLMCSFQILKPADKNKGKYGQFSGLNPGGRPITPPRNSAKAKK", "assay": "Inhibition of PP1A (unknown origin) using DiFMUP as substrate at 0.01 to 1000 uM", "conditions": "dose 0.01-1000 µM"}, "[7]": {"molecular_target": "T2, Tyrosine-protein phosphatase non-receptor type 2 (Homo sapiens) (UniProt P17706)", "T2 sequence (whole entry)": "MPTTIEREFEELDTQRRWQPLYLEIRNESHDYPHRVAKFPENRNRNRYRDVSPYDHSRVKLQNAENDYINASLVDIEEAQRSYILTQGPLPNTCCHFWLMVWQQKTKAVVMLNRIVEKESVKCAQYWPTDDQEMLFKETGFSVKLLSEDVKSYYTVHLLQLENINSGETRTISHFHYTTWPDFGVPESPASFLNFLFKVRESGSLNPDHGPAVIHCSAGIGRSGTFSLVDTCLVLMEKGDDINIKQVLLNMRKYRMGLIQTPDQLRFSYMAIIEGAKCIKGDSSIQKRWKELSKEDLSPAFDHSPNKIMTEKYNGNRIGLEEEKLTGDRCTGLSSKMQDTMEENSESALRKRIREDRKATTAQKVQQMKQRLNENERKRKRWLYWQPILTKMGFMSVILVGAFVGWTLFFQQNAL", "assay": "Inhibition of PTPN2 (unknown origin) using DiFMUP as substrate at 0.01 to 1000 uM", "conditions": "dose 0.01-1000 µM"}, "[8]": {"molecular_target": "Serine/threonine-protein phosphatase 5 (Homo sapiens, UniProt P53041, K430A)", "sequence (P53041 2-499 K430A limits assumed)": "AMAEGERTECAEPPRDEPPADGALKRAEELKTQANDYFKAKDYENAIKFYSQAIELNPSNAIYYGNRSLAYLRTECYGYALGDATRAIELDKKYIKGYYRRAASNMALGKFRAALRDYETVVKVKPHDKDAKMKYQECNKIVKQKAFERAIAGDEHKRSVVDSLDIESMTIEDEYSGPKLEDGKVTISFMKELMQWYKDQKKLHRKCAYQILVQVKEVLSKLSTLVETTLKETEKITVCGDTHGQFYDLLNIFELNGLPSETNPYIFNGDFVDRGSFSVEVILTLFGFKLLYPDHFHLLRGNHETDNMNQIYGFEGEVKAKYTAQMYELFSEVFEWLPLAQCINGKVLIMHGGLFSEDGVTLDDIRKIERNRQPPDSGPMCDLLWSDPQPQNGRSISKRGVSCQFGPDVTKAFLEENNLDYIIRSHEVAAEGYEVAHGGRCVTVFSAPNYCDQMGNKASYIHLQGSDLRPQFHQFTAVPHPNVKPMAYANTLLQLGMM", "assay": "Binding affinity to PP5 K430A mutant (unknown origin) assessed as dissociation constant by ITC analysis"}, "[9]": {"system": "T3, Serine/threonine-protein phosphatase 5 (Homo sapiens), P53041 [E428A]", "T3 sequence (whole entry)": "T1 sequence (P53041 whole entry) with E428A", "assay": "Binding affinity to PP5 E428A mutant (unknown origin) by ITC analysis"}, "HCT-116 [10]": {"system": "HCT-116", "assay": "Antiproliferative activity against human HCT-116 cells assessed as inhibition of cell proliferation at 1 to 100 uM incubated for 72 hrs by CCK8 assay", "assay_type": "functional, cell-based", "conditions": "dose 1-100 µM"}, "HCT-116 [11]": {"system": "HCT-116", "assay": "Effect on HSP40 expression level in human HCT-116 cells at 1 to 100 uM incubated for 24 hrs by Western blot analysis", "assay_type": "functional, cell-based", "conditions": "dose 1-100 µM"}, "HCT-116 [12]": {"system": "HCT-116", "assay": "Effect on HSP70 expression level in human HCT-116 cells at 1 to 100 uM incubated for 24 hrs by Western blot analysis", "assay_type": "functional, cell-based", "conditions": "dose 1-100 µM"}, "HCT-116 [13]": {"system": "HCT-116", "assay": "Downregulation of AT13387-induced HSP40 expression in human HCT-116 cells at 50 uM incubated for 24 hrs by Western blot analysis", "assay_type": "functional, cell-based"}, "SW-620": {"system": "SW-620", "assay": "Enhancement of HSP90 inhibitor AT13387-induced antiproliferative activity against human SW620 cells assessed as HSP90 inhibitor AT13387 IC50 at 50 uM incubated for 72 hrs by CCK8 assay (reference value: 122.3 nM)", "assay_type": "functional, cell-based", "conditions": "SW-620, 72 h"}, "HCT-116 [14]": {"system": "HCT-116", "assay": "Downregulation of AT13387-induced HSP70 mRNA expression in human HCT-116 cells at 50 uM incubated for 24 hrs by qRT-PCR analysis", "assay_type": "functional, cell-based"}, "[15]": {"assay": "Toxicity in BALB/c nude mouse xenografted with human HCT-116 cells assessed as body weight loss at 60 mg/kg, ip administered every other day for 14 days", "assay_type": "organism-based", "conditions": "in vivo, 336 h, time 14 day"}, "HCT-116 [16]": {"system": "HCT-116", "assay": "Antitumor activity against human HCT-116 cells xenografted in BALB/c nude mouse at 60 mg/kg, ip administered every other day for 14 days", "assay_type": "functional, organism-based", "conditions": "time 14.0 day"}, "HCT-116 [17]": {"system": "HCT-116", "assay": "Antitumor activity against human HCT-116 cells xenografted in BALB/c nude mouse at 30 to 60 mg/kg, ip administered every other day for 14 days in presence of AT13387", "assay_type": "functional, organism-based", "conditions": "dose 30-60 mg/kg, time 14.0 day"}, "HCT-116 [18]": {"system": "HCT-116", "assay": "Antitumor activity against human HCT-116 cells xenografted in BALB/c nude mouse assessed as decrease in AT13387-induced HSP70 protein expression in tumor at 30 to 60 mg/kg, ip administered every other day for 14 days by Western blot analysis", "assay_type": "functional, organism-based", "conditions": "dose 30-60 mg/kg, time 14.0 day"}},
  "note": "Where a chain is given by its changes, count along the chain named. The source made the active and inactive calls. The rule behind the calls is not given here.",
  "data": [
    {"smiles": "N=c1oc2cc(F)cc(F)c2cc1C(N)=S", "values": [
      {"measurement": "inhibition", "setting": "[1]", "result": "inactive"},
      {"measurement": "Activity", "setting": "HCT-116 [2]", "result": "inactive"},
      {"measurement": "Activity", "setting": "HCT-116 [3]", "result": "inactive"},
      {"measurement": "Kd", "setting": "[4]", "result": 1140, "unit": "nM"},
      {"measurement": "Kd", "setting": "[5]", "result": 811, "unit": "nM"},
      {"measurement": "inhibition", "setting": "[6]", "result": "inactive"},
      {"measurement": "inhibition", "setting": "[7]", "result": "inactive"},
      {"measurement": "Kd", "setting": "[8]", "result": 37200, "unit": "nM"},
      {"measurement": "Activity", "setting": "[9]", "result": "inactive"},
      {"measurement": "Activity", "setting": "HCT-116 [10]", "result": "inactive"},
      {"measurement": "Activity", "setting": "HCT-116 [11]", "result": "inactive"},
      {"measurement": "Activity", "setting": "HCT-116 [12]", "result": "inactive"},
      {"measurement": "Activity", "setting": "HCT-116 [13]", "result": "Active"},
      {"measurement": "IC50", "setting": "SW-620", "result": 54.4, "unit": "nM"},
      {"measurement": "Activity", "setting": "HCT-116 [14]", "result": "Active"},
      {"measurement": "Activity", "setting": "[15]", "result": "Non-Toxic"},
      {"measurement": "Activity", "setting": "HCT-116 [16]", "result": "inactive"},
      {"measurement": "Activity", "setting": "HCT-116 [17]", "result": "Active"},
      {"measurement": "Activity", "setting": "HCT-116 [18]", "result": "Active"}
    ]}
  ]
}
